We go through 21 molecules from ChEMBL document CHEMBL4138148, “Discovery of novel pyrrolo-pyridine/pyrimidine derivatives bearing pyridazinone moiety as c-Met kinase inhibitors” (Eur J Med Chem, 2017).

Some results are limits rather than exact numbers.

For experiment [1], the system named is A549. Description: cells. The conditions noted are these: Homo sapiens, A549, 72 h.
Description: Cytotoxicity against human A549 cells assessed as reduction in cell viability after 72 hrs by MTT assay
Experiment [2] relates to MCF7. Description: cells. The note with it: Homo sapiens, MCF7, 72 h.
Description: Cytotoxicity against human MCF7 cells assessed as reduction in cell viability after 72 hrs by MTT assay
Experiment [3] has as its target Hepatocyte growth factor receptor (Homo sapiens, UniProt P08581). As to the kind of experiment: Inhibition of c-MET (unknown origin) using FAM-labeled peptide as substrate preincubated for 10 mins followed by substrate addition by mobility shift assay.
The test system of experiment [4] is PC-3. Description: cells. The note with it: Homo sapiens, PC-3, 72 h.
Description: Cytotoxicity against human PC3 cells assessed as reduction in cell viability after 72 hrs by MTT assay
Experiment [5] relates to HepG2. As to the kind of experiment: cells. The note with it: Homo sapiens, HepG2, 72 h.
Description: Cytotoxicity against human HepG2 cells assessed as reduction in cell viability after 72 hrs by MTT assay

Hepatocyte growth factor receptor, sequence (P08581 whole entry): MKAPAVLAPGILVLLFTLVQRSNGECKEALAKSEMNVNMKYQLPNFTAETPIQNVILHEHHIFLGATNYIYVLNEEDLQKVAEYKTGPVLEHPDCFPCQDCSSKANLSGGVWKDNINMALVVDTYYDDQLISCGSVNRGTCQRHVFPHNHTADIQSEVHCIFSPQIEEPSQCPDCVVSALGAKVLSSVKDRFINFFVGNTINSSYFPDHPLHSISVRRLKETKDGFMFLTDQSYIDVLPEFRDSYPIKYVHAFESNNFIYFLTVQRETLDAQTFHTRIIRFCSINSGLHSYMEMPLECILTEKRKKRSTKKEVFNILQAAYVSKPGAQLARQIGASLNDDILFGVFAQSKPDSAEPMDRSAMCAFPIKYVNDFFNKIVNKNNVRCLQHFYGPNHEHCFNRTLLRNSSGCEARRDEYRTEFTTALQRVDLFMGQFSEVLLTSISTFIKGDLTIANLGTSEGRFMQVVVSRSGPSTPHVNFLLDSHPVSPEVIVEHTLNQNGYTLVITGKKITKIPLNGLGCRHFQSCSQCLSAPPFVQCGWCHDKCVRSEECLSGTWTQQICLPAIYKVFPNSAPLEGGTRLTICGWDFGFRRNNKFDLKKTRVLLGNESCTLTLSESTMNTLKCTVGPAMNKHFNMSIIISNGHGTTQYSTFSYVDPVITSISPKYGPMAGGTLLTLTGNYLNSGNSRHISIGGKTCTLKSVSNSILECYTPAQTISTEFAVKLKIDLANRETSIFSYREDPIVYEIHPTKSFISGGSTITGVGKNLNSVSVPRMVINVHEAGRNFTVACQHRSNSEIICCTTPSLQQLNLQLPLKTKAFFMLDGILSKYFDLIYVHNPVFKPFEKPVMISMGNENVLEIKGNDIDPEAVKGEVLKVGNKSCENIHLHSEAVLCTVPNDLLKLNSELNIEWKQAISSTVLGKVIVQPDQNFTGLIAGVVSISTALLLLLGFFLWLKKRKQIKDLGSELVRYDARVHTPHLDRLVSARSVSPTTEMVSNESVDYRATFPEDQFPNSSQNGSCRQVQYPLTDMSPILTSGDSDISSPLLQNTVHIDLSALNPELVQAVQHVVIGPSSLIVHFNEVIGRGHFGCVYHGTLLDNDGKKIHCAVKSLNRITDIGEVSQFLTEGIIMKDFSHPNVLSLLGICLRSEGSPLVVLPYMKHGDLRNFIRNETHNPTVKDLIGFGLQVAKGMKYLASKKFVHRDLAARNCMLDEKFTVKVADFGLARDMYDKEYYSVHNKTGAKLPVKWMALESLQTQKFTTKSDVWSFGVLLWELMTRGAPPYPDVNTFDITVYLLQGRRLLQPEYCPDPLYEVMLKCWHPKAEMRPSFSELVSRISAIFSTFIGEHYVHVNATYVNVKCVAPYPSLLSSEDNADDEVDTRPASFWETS

Regarding `Cc1cc(=O)n(-c2ccc(Br)cc2F)nc1C(=O)Nc1ccc(Oc2ncnc3[nH]ccc23)cc1`, the IC50 in experiment [1] came out at 3.77 µM; in experiment [2] it was 3.21 µM; in experiment [3], 20.7 µM; in experiment [4], 2.73 µM; in experiment [5], 3.66 µM.

On to `Cn1ccc2c(Oc3ccc(NC(=O)c4nn(-c5ccc(Cl)c(F)c5)ccc4=O)cc3F)ccnc21`, for which the IC50 in experiment [1] is over 60 µM; in experiment [2] it was 16.6 µM; in experiment [4], 17.9 µM; in experiment [5] it was 22.1 µM.

Turning to `Cn1ccc2c(Oc3ccc(NC(=O)c4nn(-c5ccc(Cl)cc5)ccc4=O)cc3F)ccnc21`, the IC50 in experiment [1], in experiment [2], in experiment [4] and in experiment [5] was over 60 µM each time.

As to `Cc1ccc(-n2nc(C(=O)Nc3ccc(Oc4ncnc5[nH]ccc45)cc3)c(C)cc2=O)cc1`, the IC50 in experiment [1] was 6.4 µM; in experiment [2], 3.62 µM; in experiment [3] it was 27 µM; in experiment [4], 9.61 µM; in experiment [5], 7.46 µM.

Consider `COc1ccc(-n2ccc(=O)c(C(=O)Nc3ccc(Oc4ccnc5c4ccn5C)c(F)c3)n2)cc1`, for which the IC50 in experiment [1], in experiment [2], in experiment [4] and in experiment [5] was over 60 µM each time.

As to `COc1ccc(-n2ccc(=O)c(C(=O)Nc3ccc(Oc4ccnc5[nH]ccc45)c(F)c3)n2)cc1`, the IC50 is over 60 µM in experiment [1], 55.4 µM in experiment [2], 46.4 µM in experiment [4] and over 60 µM in experiment [5].

In the case of `Cc1cc(=O)n(-c2ccccc2Cl)nc1C(=O)Nc1ccc(Oc2ncnc3c2ccn3C)c(F)c1`, the IC50 in experiment [1], in experiment [2], in experiment [4] and in experiment [5] was over 60 µM each time.

For the molecule `Cn1ccc2c(Oc3ccc(NC(=O)c4nn(-c5ccc(Br)cc5F)ccc4=O)cc3)ccnc21`, the IC50 was determined as 35.7 µM in experiment [1], 19.8 µM in experiment [2], 20.5 µM in experiment [4] and 31.2 µM in experiment [5].

In the case of `Cn1ccc2c(Oc3ccc(NC(=O)c4nn(-c5ccccc5)ccc4=O)cc3)ccnc21`, the IC50 stood at 51.7 µM in experiment [1], 45.1 µM in experiment [2], 58.2 µM in experiment [4] and 56.2 µM in experiment [5].

Take `O=C(Nc1ccc(Oc2ccnc3[nH]ccc23)cc1)c1nn(-c2ccc(Cl)c(F)c2)ccc1=O`: the IC50 in experiment [1] came out at 2.58 µM; in experiment [2], 3.11 µM; in experiment [3], 0.17 µM; in experiment [4] it was 7.78 µM; in experiment [5] it was 5.24 µM.

`Cn1ccc2c(Oc3ccc(NC(=O)c4nn(-c5ccccc5)ccc4=O)cc3F)ccnc21`: the IC50 in experiment [1], in experiment [2], in experiment [4] and in experiment [5] was over 60 µM in each case.

Regarding `O=C(Nc1ccc(Oc2ccnc3[nH]ccc23)cc1)c1nn(-c2ccccc2)ccc1=O`, the IC50 in experiment [1] was found to be 10.5 µM; in experiment [2] it was 15.6 µM; in experiment [4], 15 µM; in experiment [5] it was 17.8 µM.

`Cc1cc(=O)n(-c2ccc(Br)cc2F)nc1C(=O)Nc1ccc(Oc2ncnc3c2ccn3C)c(F)c1`: the IC50 in experiment [1] was 14.4 µM; in experiment [2] it was over 60 µM; in experiment [4], 6.67 µM; in experiment [5] it was over 60 µM.

For `Cc1cc(=O)n(-c2ccccc2Cl)nc1C(=O)Nc1ccc(Oc2ncnc3c2ccn3C)cc1`, the IC50 in experiment [1] is 5.12 µM; in experiment [2], 4.13 µM; in experiment [4], 16.4 µM; in experiment [5], 11.2 µM.

Regarding `Cn1ccc2c(Oc3ccc(NC(=O)c4nn(-c5ccc(Br)cc5)ccc4=O)cc3)ccnc21`, the IC50 stood at 59.4 µM in experiment [1], 16.2 µM in experiment [2], 23 µM in experiment [4] and 39.2 µM in experiment [5].

For the molecule `Cc1cc(=O)n(-c2ccccc2OC(F)(F)F)nc1C(=O)Nc1ccc(Oc2ncnc3c2ccn3C)c(F)c1`, the IC50 in experiment [1], in experiment [2], in experiment [4] and in experiment [5] was over 60 µM each time.

Take `Cc1cc(=O)n(-c2ccc(Br)cc2F)nc1C(=O)Nc1ccc(Oc2ncnc3[nH]ccc23)c(F)c1`: the IC50 amounted to 6.12 µM in experiment [1], 26.6 µM in experiment [2], 13.3 µM in experiment [4] and 32 µM in experiment [5].

With `Cc1cc(=O)n(-c2ccccc2OC(F)(F)F)nc1C(=O)Nc1ccc(Oc2ncnc3[nH]ccc23)cc1`, the IC50 in experiment [1] came out at 16.2 µM; in experiment [2], 32 µM; in experiment [4], 22.5 µM; in experiment [5], 22.8 µM.

Consider `O=C(Nc1ccc(Oc2ccnc3[nH]ccc23)c(F)c1)c1nn(-c2ccccc2)ccc1=O`, for which the half-maximal inhibitory concentration (IC50) is 56.8 µM in experiment [1], 34.9 µM in experiment [2], 38.6 µM in experiment [4] and 24.9 µM in experiment [5].

For the molecule `O=C(Nc1ccc(Oc2ccnc3[nH]ccc23)c(F)c1)c1nn(-c2ccc(Br)cc2)ccc1=O`, the IC50 in experiment [1] was over 60 µM; in experiment [2], 11.6 µM; in experiment [4], 40.8 µM; in experiment [5] it was 68 µM.

With `Cc1cc(=O)n(-c2ccc(Br)cc2F)nc1C(=O)Nc1ccc(Oc2ncnc3c2ccn3C)cc1`, the IC50 in experiment [1] is 47.3 µM; in experiment [2] it was 27.7 µM; in experiment [4] it was 18.8 µM; in experiment [5], 33.6 µM.

Usually IC50 stands for the midpoint of a concentration-inhibition curve.
